Reference: ChEMBL document CHEMBL1146149, “The development of 2-benzimidazole substituted pyrimidine based inhibitors of lymphocyte specific kinase (Lck)” (Bioorg Med Chem Lett, 2006)
Converted amounts (≈) assume the structure as drawn.

Legend:
Jurkat = experiment: Inhibition of IL2 production in Jurkat E6-1 T cells by ELISA; settings: Homo sapiens
[1] = Loss of metabolic stability in Sprague-Dawley rat hepatocytes after 1 hr at 1 uM; assay type: ADME, cell-based, Hepatocyte; settings: read-out: Activity
[2] = Aqueous solubility at pH 7.4; assay type: physicochemical
[3] = biological target: Tyrosine-protein kinase Lck (Homo sapiens, UniProt P06239)
Tyrosine-protein kinase Lck, sequence (P06239 whole entry): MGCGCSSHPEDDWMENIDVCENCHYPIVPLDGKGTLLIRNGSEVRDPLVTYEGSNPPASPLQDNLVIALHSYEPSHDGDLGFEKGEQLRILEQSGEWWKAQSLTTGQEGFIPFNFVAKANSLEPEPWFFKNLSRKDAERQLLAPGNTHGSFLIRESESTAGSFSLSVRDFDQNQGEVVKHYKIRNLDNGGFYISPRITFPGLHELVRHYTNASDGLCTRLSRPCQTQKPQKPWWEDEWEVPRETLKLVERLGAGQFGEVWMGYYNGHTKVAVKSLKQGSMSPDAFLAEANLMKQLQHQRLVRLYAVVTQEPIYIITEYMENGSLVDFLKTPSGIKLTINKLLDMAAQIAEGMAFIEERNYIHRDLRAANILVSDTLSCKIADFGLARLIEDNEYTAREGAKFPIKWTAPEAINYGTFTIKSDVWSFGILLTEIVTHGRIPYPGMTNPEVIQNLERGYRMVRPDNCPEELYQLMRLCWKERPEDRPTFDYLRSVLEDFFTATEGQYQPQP
Description: Inhibition of human recombinant Lck by ProFlour assay

[4] = biological target: Proto-oncogene tyrosine-protein kinase Src (Homo sapiens, UniProt P12931); experiment: Inhibition of human recombinant Src by ProFlour assay
Proto-oncogene tyrosine-protein kinase Src, sequence (P12931 2-536 limits assumed): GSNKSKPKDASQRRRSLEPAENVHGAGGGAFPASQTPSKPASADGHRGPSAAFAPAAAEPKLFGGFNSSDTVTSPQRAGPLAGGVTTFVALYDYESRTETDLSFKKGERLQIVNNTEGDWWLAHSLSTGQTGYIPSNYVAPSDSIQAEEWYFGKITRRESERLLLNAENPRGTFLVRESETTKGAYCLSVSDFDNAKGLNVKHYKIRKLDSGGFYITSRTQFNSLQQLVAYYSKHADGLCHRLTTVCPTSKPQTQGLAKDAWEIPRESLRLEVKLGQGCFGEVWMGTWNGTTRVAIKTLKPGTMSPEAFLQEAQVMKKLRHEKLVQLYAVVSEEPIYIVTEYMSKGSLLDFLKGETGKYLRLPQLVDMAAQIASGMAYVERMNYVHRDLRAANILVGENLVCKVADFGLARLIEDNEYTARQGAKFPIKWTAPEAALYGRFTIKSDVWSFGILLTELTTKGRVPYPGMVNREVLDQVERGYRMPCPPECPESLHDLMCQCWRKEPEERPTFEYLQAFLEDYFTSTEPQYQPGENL

What does the source list for `Cc1ccc(O)cc1Nc1cc(NCCN2CCN(C)CC2)nc(-n2cnc3ccccc32)n1`?
IC50 (Jurkat): 2280 nM; metabolised at 1 h, 1 µM [1]: 39%; solubility [2]: 54 µg/mL (≈ 118 µM)

With `COc1ccc(C)c(Nc2nccc(-n3cnc4ccccc43)n2)c1` as the molecule, how does the IC50 [3] read?
The IC50 was over 10 µM.

With `Cc1ccc(O)cc1Nc1cc(CC2CCN(C)CC2)nc(-n2cnc3ccccc32)n1` as the molecule, how does the IC50 (Jurkat) read?
Its IC50 is 163 nM.

What about the solubility [2] of the same molecule?
The solubility was 40 µg/mL (≈ 93.3 µM).

Which solubility [2] does the source give for `Cc1ccc(O)cc1Nc1cc(N2CCN(C)CC2)nc(-n2cnc3ccccc32)n1` here?
Its solubility is at most 0.1 µg/mL.

With `Cc1ccc(O)cc1Nc1cc(OCCN2CCOCC2)nc(-n2cnc3ccccc32)n1` as the molecule, how does the IC50 (Jurkat) read?
Its IC50 is 54 nM.

And the metabolised at 1 h, 1 µM [1]?
Its metabolised at 1 h, 1 µM is 48%.

And the solubility [2]?
Its solubility is 3 µg/mL (≈ 6.72 µM).

What does the source list for `Cc1ccc(O)cc1Nc1cc(OCCN2CCN(C)CC2)nc(-n2cnc3ccccc32)n1`?
IC50 (Jurkat): 400 nM; metabolised at 1 h, 1 µM [1]: 35%; solubility [2]: 70 µg/mL (≈ 152 µM)

With `Cc1ccc(F)cc1Nc1ccnc(-n2cnc3ccccc32)n1` as the molecule, how does the IC50 [3] read?
The IC50 was over 10 µM.

With `Cc1ccc(O)cc1Nc1cc(-n2cnc3ccccc32)ncn1` as the molecule, how does the IC50 [3] read?
The IC50 was over 10 µM.

What does the source list for `Cc1ccc(O)cc1Nc1cc(NCCCN(C)C)nc(-n2cnc3ccccc32)n1`?
IC50 (Jurkat): 2200 nM; metabolised at 1 h, 1 µM [1]: 48%; solubility [2]: 55 µg/mL (≈ 132 µM)

Which results are given for `COc1ccc(C)c(Nc2cc(OCCN3CCOCC3)nc(-n3cnc4ccccc43)n2)c1`?
IC50 (Jurkat): 1270 nM; solubility [2]: 27 µg/mL (≈ 58.6 µM)

For `Oc1cccc(Nc2nccc(-n3cnc4ccccc43)n2)c1`, which IC50 [3] is on record?
Its IC50 is over 10 µM.

For `CCN(CC)CCNc1cc(Nc2cc(O)ccc2C)nc(-n2cnc3ccccc32)n1`, which IC50 (Jurkat) is on record?
The IC50 was 549 nM.

What about the IC50 [4] of the same molecule?
The IC50 was 162 nM.

What about the metabolised at 1 h, 1 µM [1] of the same molecule?
Its metabolised at 1 h, 1 µM is 45%.

And the solubility [2]?
Its solubility is 127 µg/mL (≈ 294 µM).
